From paper PMC11571031 (Protein Science : A Publication of the Protein Society, 2024)

How the values were obtained:
CbTan2 = CbTan2 (Clostridium butyricum, UniProt A0A6M0U600)
CbTan1 = CbTan1 (Clostridium butyricum, UniProt C4IC90)
Chain of CbTan1 (C4IC90 25-633 limits assumed): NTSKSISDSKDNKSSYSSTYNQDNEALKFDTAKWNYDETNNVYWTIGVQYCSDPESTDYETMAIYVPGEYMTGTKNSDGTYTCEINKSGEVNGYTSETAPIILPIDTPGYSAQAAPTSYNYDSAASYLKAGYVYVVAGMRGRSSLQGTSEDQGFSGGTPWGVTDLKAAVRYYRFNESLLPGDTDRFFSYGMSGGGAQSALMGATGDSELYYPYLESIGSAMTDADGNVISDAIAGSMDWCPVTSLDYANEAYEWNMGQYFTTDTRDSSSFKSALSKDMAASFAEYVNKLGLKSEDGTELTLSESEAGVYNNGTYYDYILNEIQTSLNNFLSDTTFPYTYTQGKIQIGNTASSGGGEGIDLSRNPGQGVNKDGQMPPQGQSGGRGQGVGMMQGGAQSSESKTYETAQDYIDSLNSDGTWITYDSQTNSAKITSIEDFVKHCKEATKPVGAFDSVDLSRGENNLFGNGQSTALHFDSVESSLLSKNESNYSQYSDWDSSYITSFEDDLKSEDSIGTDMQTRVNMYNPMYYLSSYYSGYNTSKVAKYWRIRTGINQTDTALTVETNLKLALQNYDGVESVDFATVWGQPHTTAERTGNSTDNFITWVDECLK

Chain of CbTan2 (A0A6M0U600 1-490 limits assumed): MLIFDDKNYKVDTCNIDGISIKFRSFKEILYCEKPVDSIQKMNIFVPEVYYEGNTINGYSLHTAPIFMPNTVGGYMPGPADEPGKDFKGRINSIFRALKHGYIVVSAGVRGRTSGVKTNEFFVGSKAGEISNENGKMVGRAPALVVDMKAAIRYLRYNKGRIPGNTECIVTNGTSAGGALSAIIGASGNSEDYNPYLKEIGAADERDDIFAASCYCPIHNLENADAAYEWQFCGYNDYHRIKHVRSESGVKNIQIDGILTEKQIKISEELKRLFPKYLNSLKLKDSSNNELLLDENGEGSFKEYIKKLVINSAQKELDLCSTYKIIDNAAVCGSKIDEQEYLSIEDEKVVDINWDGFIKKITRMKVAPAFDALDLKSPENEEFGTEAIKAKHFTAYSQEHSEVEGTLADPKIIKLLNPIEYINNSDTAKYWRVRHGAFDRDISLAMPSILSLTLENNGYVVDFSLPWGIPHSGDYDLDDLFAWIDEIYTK

| SMILES | K i (mM) ^a (CbTan2) | K i (mM) ^a (CbTan1) |
| --- | --- | --- |
| COC(=O)c1cc(O)c(O)c(O)c1 [MG, methyl gallate] | 44.0 ± 6.42 mM |  |
| O=C(O[C@@H]1Cc2c(O)cc(O)cc2O[C@@H]1c1cc(O)c(O)c(O)c1)c1cc(O)c(O)c(O)c1 [EGCG, epigallocatechin gallate] | 1.92 ± 0.59 mM | 1.11 ± 0.54 mM |
| O=C(O[C@@H]1O[C@H](CO)[C@@H](O)[C@H](O)[C@H]1O)c1cc(O)c(O)c(O)c1 [GG, β-glucogallin] | 8.51 ± 2.39 mM | 35.9 ± 6.77 mM |
